From PubChem BioAssay (NCI)
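1) Cells in 96-well plates. 2) Compound, 48 h, 5 concentrations. 3) Linear interpolation between surrounding doses. 4) Unreached endpoint = highest concentration. Here, GI50 denotes the concentration required for 50% inhibition of growth. Definition used: TGI = concentration required for complete inhibition of growth.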

Legend:
Assay in all cases: NCI tumour cell line growth inhibition, 48 h
[1] = test system: 786-0 renal
[2] = test system: A498 renal
[3] = test system: A549 NSCLC
[4] = test system: ACHN renal
[5] = test system: BT-549 breast
[6] = test system: CCRF-CEM leukemia
[7] = test system: COLO 205 colon
[8] = test system: DU-145 prostate
[9] = test system: EKVX NSCLC
[10] = test system: HCC-2998 colon
[11] = test system: HCT-116 colon
[12] = test system: HCT-15 colon
[13] = test system: HL-60(TB) leukemia
[14] = test system: HOP-62 NSCLC
[15] = test system: HOP-92 NSCLC
[16] = test system: HS 578T breast
[17] = test system: HT29 colon
[18] = test system: IGROV1 ovarian
[19] = test system: K-562 leukemia
[20] = test system: KM12 colon
[21] = test system: LOX IMVI melanoma
[22] = test system: M14 melanoma
[23] = test system: MALME-3M melanoma
[24] = test system: MCF7 breast
[25] = test system: MDA-MB-231 breast
[26] = test system: MDA-MB-435
[27] = test system: MOLT-4 leukemia
[28] = test system: NCI-H226 lung
[29] = test system: NCI-H23 lung
[30] = test system: NCI-H460 lung
[31] = test system: NCI-H522 lung
[32] = test system: NCI/ADR-RES ovarian
[33] = test system: OVCAR-3 ovarian
[34] = test system: OVCAR-4 ovarian
[35] = test system: OVCAR-5 ovarian
[36] = test system: OVCAR-8 ovarian
[37] = test system: PC-3 prostate
[38] = test system: RPMI-8226 leukemia
[39] = test system: RXF 393 renal
[40] = test system: SF-268 CNS
[41] = test system: SF-295 CNS
[42] = test system: SF-539 CNS
[43] = test system: SK-MEL-2 melanoma
[44] = test system: SK-MEL-28 melanoma
[45] = test system: SK-MEL-5 melanoma
[46] = test system: SK-OV-3 ovarian
[47] = test system: SN12C renal
[48] = test system: SNB-19 CNS
[49] = test system: SNB-75 CNS
[50] = test system: SR leukemia
[51] = test system: SW-620 colon
[52] = test system: T-47D breast
[53] = test system: TK-10 renal
[54] = test system: U251 CNS
[55] = test system: UACC-257 melanoma
[56] = test system: UACC-62 melanoma
[57] = test system: UO-31 renal
[58] = test system: CAKI-1 renal

`CN(C)CCCOc1ccc(-c2ccc3ncc4c(c3c2)n(C2CCOCC2)c(=O)n4C)cn1` was tested, and the GI50 [1] was 1.74 µM, the TGI [1] was 12.1 µM and the GI50 [2] was 0.559 µM. It also gave a TGI [2] of 3.64 µM, a GI50 [3] of 2.36 µM and a TGI [3] of 12.3 µM. The GI50 [4] was 2 µM, the TGI [4] was 12.6 µM and the GI50 [5] was 1.32 µM. The TGI [5] was 8.99 µM, the GI50 [6] was 3.02 µM and the TGI [6] was 22.7 µM. For the same compound, the GI50 [7] was 0.825 µM, the TGI [7] was 3.28 µM and the GI50 [8] was 2.37 µM. The TGI [8] was 17.2 µM, the GI50 [9] was 0.975 µM and the TGI [9] was 12.2 µM. It also gave a GI50 [10] of 2.51 µM, a TGI [10] of 15.6 µM and a GI50 [11] of 3.12 µM. For the same compound, the TGI [11] was 16.6 µM, the GI50 [12] was 3.08 µM and the TGI [12] was 18 µM. For the same compound, the GI50 [13] was 2.48 µM, the TGI [13] was 15.9 µM and the GI50 [14] was 1.87 µM. The TGI [14] was 12.5 µM, the GI50 [15] was 0.218 µM and the TGI [15] was 1.61 µM. The GI50 [16] was 0.902 µM, the TGI [16] was 10.1 µM and the GI50 [17] was 1.95 µM. The TGI [17] was 13.5 µM, the GI50 [18] was 0.454 µM and the TGI [18] was 5.6 µM. It also gave a GI50 [19] of 9.07 µM, a TGI [19] of 43.4 µM and a GI50 [20] of 3.16 µM. The TGI [20] was 16.4 µM, the GI50 [21] was 1.13 µM and the TGI [21] was 6.51 µM. The GI50 [22] was 1.78 µM, the TGI [22] was 13.8 µM and the GI50 [23] was 0.354 µM. It also gave a TGI [23] of 3.41 µM, a GI50 [24] of 0.545 µM and a TGI [24] of 14.5 µM. For the same compound, the GI50 [25] was 1.31 µM, the TGI [25] was 11.7 µM and the GI50 [26] was 1.65 µM. It also gave a TGI [26] of 11.3 µM, a GI50 [27] of 1.51 µM and a TGI [27] of 14.4 µM. The GI50 [28] was 1.73 µM, the TGI [28] was 15.2 µM and the GI50 [29] was 2.53 µM. For the same compound, the TGI [29] was 22.1 µM, the GI50 [30] was 0.94 µM and the TGI [30] was 15.5 µM. For the same compound, the GI50 [31] was 0.985 µM, the TGI [31] was 12.4 µM and the GI50 [32] was 3.86 µM. The TGI [32] was 21.9 µM, the GI50 [33] was 1.34 µM and the TGI [33] was 10.3 µM. It also gave a GI50 [34] of 1.34 µM, a TGI [34] of 11.3 µM and a GI50 [35] of 1.49 µM. For the same compound, the TGI [35] was 30.4 µM, the GI50 [36] was 3.24 µM and the TGI [36] was 17.2 µM. The GI50 [37] was 0.861 µM, the TGI [37] was 13.8 µM and the GI50 [38] was 1.1 µM. For the same compound, the TGI [38] was 8.63 µM, the GI50 [39] was 0.838 µM and the TGI [39] was 4.85 µM. The GI50 [40] was 2.04 µM, the TGI [40] was 29.5 µM and the GI50 [41] was 1.29 µM. The TGI [41] was 7.81 µM, the GI50 [42] was 1.52 µM and the TGI [42] was 6.21 µM. It also gave a GI50 [43] of 1.47 µM, a TGI [43] of 6.21 µM and a GI50 [44] of 1.97 µM. It also gave a TGI [44] of 13 µM, a GI50 [45] of 1.48 µM and a TGI [45] of 7.47 µM. It also gave a GI50 [46] of 0.514 µM, a TGI [46] of 4.19 µM and a GI50 [47] of 2.12 µM. For the same compound, the TGI [47] was 20.9 µM, the GI50 [48] was 4.71 µM and the TGI [48] was 18.7 µM. For the same compound, the GI50 [49] was 0.396 µM, the TGI [49] was 6.45 µM and the GI50 [50] was 3.01 µM. The TGI [50] was 15.6 µM, the GI50 [51] was 2.81 µM and the TGI [51] was 21.1 µM. It also gave a GI50 [52] of 0.212 µM, a TGI [52] of 2.92 µM and a GI50 [53] of 0.286 µM. The TGI [53] was 2.91 µM, the GI50 [54] was 4.52 µM and the TGI [54] was 18.9 µM. It also gave a GI50 [55] of 1.94 µM, a TGI [55] of 12.2 µM and a GI50 [56] of 2.73 µM. The TGI [56] was 13.8 µM, the GI50 [57] was 0.494 µM and the TGI [57] was 5.89 µM.
`COC(=O)c1c2c(c[n+]([O-])c1C)C(=O)C=CC2=O` was tested, and the GI50 [1] was 2.56 µM, the TGI [1] was 6.39 µM and the GI50 [2] was 13.1 µM. It also gave a TGI [2] of 26.4 µM, a GI50 [3] of 16.1 µM and a TGI [3] of 40.1 µM. For the same compound, the GI50 [4] was 1.73 µM, the TGI [4] was 3.22 µM and the GI50 [5] was 1.78 µM. The TGI [5] was 3.23 µM, the GI50 [58] was 1.7 µM and the TGI [58] was 3.16 µM. It also gave a GI50 [6] of 2.5 µM, a TGI [6] of 6.57 µM and a GI50 [7] of 1.85 µM. The TGI [7] was 3.93 µM, the GI50 [8] was 1.85 µM and the TGI [8] was 3.54 µM. For the same compound, the GI50 [9] was 1.83 µM, the TGI [9] was 4.25 µM and the GI50 [10] was 4.25 µM. It also gave a TGI [10] of 15.5 µM, a GI50 [11] of 2.19 µM and a TGI [11] of 5.18 µM. For the same compound, the GI50 [12] was 1.78 µM, the TGI [12] was 3.51 µM and the GI50 [13] was 2.13 µM. It also gave a TGI [13] of 5.75 µM, a GI50 [14] of 2.6 µM and a TGI [14] of 7.71 µM. The GI50 [15] was 2.84 µM, the TGI [15] was 9.06 µM and the GI50 [16] was 2.17 µM. For the same compound, the TGI [16] was 6.04 µM, the GI50 [17] was 4.1 µM and the TGI [17] was 56.3 µM. It also gave a GI50 [18] of 2.11 µM, a TGI [18] of 4.54 µM and a GI50 [19] of 2.51 µM. It also gave a TGI [19] of over 100 µM, a GI50 [20] of 4.27 µM and a TGI [20] of 18.8 µM. It also gave a GI50 [21] of 1.96 µM, a TGI [21] of 4.18 µM and a GI50 [22] of 1.87 µM. It also gave a TGI [22] of 3.69 µM, a GI50 [23] of 1.25 µM and a TGI [23] of 2.51 µM. It also gave a GI50 [24] of 1.65 µM, a TGI [24] of 3.46 µM and a GI50 [25] of 2.01 µM. The TGI [25] was 5.46 µM, the GI50 [26] was 1.68 µM and the TGI [26] was 3.15 µM. The GI50 [27] was 2.43 µM, the TGI [27] was 6.21 µM and the GI50 [28] was 2.12 µM. For the same compound, the TGI [28] was 4.52 µM, the GI50 [29] was 1.88 µM and the TGI [29] was 4.26 µM. It also gave a GI50 [30] of 12.8 µM, a TGI [30] of 28 µM and a GI50 [31] of 1.72 µM. The TGI [31] was 4.5 µM, the GI50 [32] was 3.27 µM and the TGI [32] was 14.4 µM. The GI50 [33] was 0.317 µM, the TGI [33] was 1.17 µM and the GI50 [34] was 1.44 µM. For the same compound, the TGI [34] was 2.83 µM, the GI50 [35] was 1.9 µM and the TGI [35] was 3.85 µM. For the same compound, the GI50 [36] was 2.93 µM, the TGI [36] was 10.8 µM and the GI50 [37] was 4.34 µM. The TGI [37] was 55.1 µM, the GI50 [38] was 3.9 µM and the TGI [38] was 26.6 µM. It also gave a GI50 [40] of 2.83 µM, a TGI [40] of 10.7 µM and a GI50 [41] of 3.43 µM. For the same compound, the TGI [41] was 13.2 µM, the GI50 [42] was 1.79 µM and the TGI [42] was 3.39 µM. The GI50 [43] was 2.08 µM, the TGI [43] was 4.5 µM and the GI50 [44] was 2.14 µM. The TGI [44] was 3.97 µM, the GI50 [45] was 1.74 µM and the TGI [45] was 3.15 µM. It also gave a GI50 [46] of 19.3 µM, a TGI [46] of 51.1 µM and a GI50 [47] of 1.76 µM. It also gave a TGI [47] of 3.23 µM, a GI50 [48] of 3.02 µM and a TGI [48] of 10.9 µM. It also gave a GI50 [49] of 1.72 µM, a TGI [49] of 4.13 µM and a GI50 [50] of 2.72 µM. It also gave a TGI [50] of over 100 µM, a GI50 [51] of 2.08 µM and a TGI [51] of 5.36 µM. For the same compound, the GI50 [52] was 2.33 µM, the TGI [52] was 6.85 µM and the GI50 [53] was 2.99 µM. It also gave a TGI [53] of 9.57 µM, a GI50 [54] of 2.15 µM and a TGI [54] of 5.22 µM. For the same compound, the GI50 [55] was 2.26 µM, the TGI [55] was 5.54 µM and the GI50 [56] was 1.81 µM. For the same compound, the TGI [56] was 3.4 µM, the GI50 [57] was 1.52 µM and the TGI [57] was 3.03 µM.
